Experimental data as given in US20240010726A1, “LFA-1 SIGNALLING MEDIATOR FOR USE IN CANCER THERAPY” (Universität Basel, priority 2020, published 2024).

Assays:
Format in all cases: cell-based
human EM CD8 T cells [1] = assay: Cytometric bead array of cytokines in EM CD8 T cell culture supernatants; conditions: Mg^2+-restricted (0 mM) vs 1.2 mM Mg^2+; 24 h
Description: FIG. 2: Extracellular magnesium promotes memory-specific activation via LFA-1. Glycolytic switch of human EM CD8 T cells (a) and naïve CD8 T cells (b) subsets upon injection of anti-CD3 Ab only, or anti-CD3 and anti-CD28 Ab, was assessed by metabolic flux analysis in medium containing either 1.2 mM Mg^2+, 0 mM Mg^2+, or medium which was reconstituted from 0 mM to 1.2 mM Mg^2+ immediately prior to activation (0→1.2 mM Mg^2+). (a) Results for human effector memory (EM) and (b) for human naïve CD8 T cells. Glycolytic switch was quantified by subtracting […] measurements. (c) Flow cytometric analysis of surface activation markers on human EM CD8 T cells 24 hours after activation by plate-bound anti-CD3 Ab and soluble anti-CD28 Ab, in 1.2 mM and 0 mM Mg^2+ media, respectively. (d) Abundance of inflammatory cytokines in corresponding EM CD8 T cell culture supernatants, determined by CBA. (e) CD11a (LFA-1) surface expression on human naïve and EM CD8 T cells as well PHA T cell blasts. Flow cytometry-based assessment of total LFA-1 expression assessed by mAb TS2/4 (f), closed conformation of αL by mAb HI111 (g), extended conformation of LFA-1 by mAb Kim127 (h), open head-piece conformation of LFA-1 by mAb m24 (i), phosphorylation of focal adhesion kinase (FAK) […] as well TNF expression (k)±TCR-induced activation in different extracellular Mg^2+ concentrations. (l) Flow cytometry-based assessment of LFA-1 with open-head piece conformation on human EM and naïve CD8 T cells using the open head-piece reporter mAb m24. (m) Assessment of glycolytic switch of EM CD8 T cells. (n) Assessment of glycolytic switch of naïve CD8 T cells. […] Cytokine concentrations in cell culture supernatants were determined using the LegendPlex cytrometric bead Array human […]) according to manufacturer's instructions.

[2] = test system: murine WT and LFA-1^−/− CTLs; assay: Degranulation marker CD107a on murine WT and LFA-1−/− CTLs; conditions: 8 h anti-CD3/anti-CD28 Ab; 0 mM vs 1.2 mM Mg^2+
human EM CD8 T cells [3] = assay: Flow cytometry of surface activation markers on EM CD8 T cells; conditions: 24 h plate-bound anti-CD3 and soluble anti-CD28 Ab; 0 mM vs 1.2 mM Mg^2+
Description: FIG. 2: Extracellular magnesium promotes memory-specific activation via LFA-1. Glycolytic switch of human EM CD8 T cells (a) and naïve CD8 T cells (b) subsets upon injection of anti-CD3 Ab only, or anti-CD3 and anti-CD28 Ab, was assessed by metabolic flux analysis in medium containing either 1.2 mM Mg^2+, 0 mM Mg^2+, or medium which was reconstituted from 0 mM to 1.2 mM Mg^2+ immediately prior to activation (0→1.2 mM Mg^2+). (a) Results for human effector memory (EM) and (b) for human naïve CD8 T cells. Glycolytic switch was quantified by subtracting […] measurements. (c) Flow cytometric analysis of surface activation markers on human EM CD8 T cells 24 hours after activation by plate-bound anti-CD3 Ab and soluble anti-CD28 Ab, in 1.2 mM and 0 mM Mg^2+ media, respectively. (d) Abundance of inflammatory cytokines in corresponding EM CD8 T cell culture supernatants, determined by CBA. (e) CD11a (LFA-1) surface expression on human naïve and EM CD8 T cells as well PHA T cell blasts. Flow cytometry-based assessment of total LFA-1 expression assessed by mAb TS2/4 (f), closed conformation of αL by mAb HI111 (g), extended conformation of LFA-1 by mAb Kim127 (h), open head-piece conformation of LFA-1 by mAb m24 (i), phosphorylation of focal adhesion kinase (FAK) […] as well TNF expression (k)±TCR-induced activation in different extracellular Mg^2+ concentrations. (l) Flow cytometry-based assessment of LFA-1 with open-head piece conformation on human EM and naïve CD8 T cells using the open head-piece reporter mAb m24. (m) Assessment of glycolytic switch of EM CD8 T cells. (n) Assessment of glycolytic switch of naïve CD8 T cells. […] Naïve CD8 T cells were activated with in house generated anti-CD3/anti-CD28 coated microbeads. Polybead microspheres ([…], Polyscience […]) were incubated with 1 μg anti-CD3 Ab and 10 μg anti-CD28 Ab. […] Primary human T cells were activated for 24 h and PHA-blasts for 4 h. For analysis of surface markers, T cells were harvested at indicated time points, washed once in cold PBS and, if required, stained with Fixable Viability Dyes for 15 min at 4° C. Surface markers were stained with appropriate antibodies for 20 min at 4° C.

## [Mg+2] [Mg^2+, Magnesium]
Human EM CD8 T cells [1]
  IFNγ secretion: decreased production
  IL-2 secretion: decreased production
  TNF secretion: decreased production
[2]
  CD107a degranulation of LFA-1^−/− CTLs: unaffected
  CD107a degranulation of WT CTLs: reduced CTL degranulation
Human EM CD8 T cells [3]
  CD25 surface expression: failed to upregulate
  CD69 surface expression: failed to upregulate
  CD71 surface expression: failed to upregulate
  CD98 surface expression: failed to upregulate
  CD107a surface expression (degranulation): failed to upregulate
